Assay [1] is described as follows: Binding affinity to amyloid beta (1 to 42) fibrils by change in fluorescence at 100 uM after 10 mins.
The nature of assay [2]: Binding affinity to amyloid beta (1 to 42) oligomers by change in fluorescence at 100 uM after 10 mins.

This passage reports Activity results from ChEMBL document CHEMBL1156243.

Calls of active or inactive are those of the source. How the calls were made is not given here.

As for `O=C1C(Cl)=C(Cl)C(=O)C(Cl)=C1Cl`, the result in assay [1] and in assay [2] was inactive.

As to `OCCN1CCN(CCCN2c3ccccc3Sc3ccc(Cl)cc32)CC1`, the result in assay [1] and in assay [2] was inactive.

On to `COc1cc(/C=C/C(=O)c2cccc(N)c2)ccc1O`, for which the outcome in assay [1] and in assay [2] was inactive.

Consider `CN(C)[C@@H]1C(O)=C(C(N)=O)C(=O)[C@@]2(O)C(O)=C3C(=O)c4c(O)cccc4[C@@](C)(O)[C@H]3C[C@@H]12`, for which the result in assay [1] and in assay [2] was inactive.

Turning to `O=c1c(-c2ccc(O)cc2)coc2cc(O)cc(O)c12`, the result in assay [1] and in assay [2] was inactive.

For the molecule `O=C1c2ccccc2Cc2ccccc21`, the result in assay [1] and in assay [2] was inactive.

Take `CC(C)OC(=O)C(C)(C)Oc1ccc(C(=O)c2ccc(Cl)cc2)cc1`: the result in assay [1] and in assay [2] was inactive.

As to `O=C(c1ccccc1)c1ccccc1`, the result in assay [1] and in assay [2] was inactive.

With `COc1cc(/C=C/C(=O)c2ccccc2)ccc1O`, the outcome in assay [1] and in assay [2] was inactive.

Consider `CN(C)c1ccc(N=Nc2ccc(S(=O)(=O)O)cc2)cc1`, for which the result in assay [1] and in assay [2] was inactive.

On to `O=c1c(O)c(-c2ccc(O)cc2)oc2cc(O)cc(O)c12`, for which the outcome in assay [1] and in assay [2] was inactive.

Turning to `COc1ccc(/C=C/c2cccc(/C=C/c3ccc(OC)c(OC)c3)c2)cc1OC`, the outcome in assay [1] and in assay [2] was Active.

Turning to `O=S1(=O)OC(c2ccc(O)cc2)(c2ccc(O)cc2)c2ccccc21`, the result in assay [1] and in assay [2] was inactive.

Consider `Cc1ccc2ccc3ccc(C)nc3c2n1`, for which the result in assay [1] and in assay [2] was Active.

As to `COc1ccc2c(c1)c(CC(=O)O)c(C)n2C(=O)c1ccc(Cl)cc1`, the result in assay [1] and in assay [2] was inactive.

Turning to `COc1ccc(/C=C/c2ccc(/C=C/c3ccc(OC)c(OCc4ccccc4)c3)c(Br)c2)cc1OCc1ccccc1`, the result in assay [1] and in assay [2] was Active.

As for `O=C(O)C(=O)Cc1c[nH]c2ccccc12`, the outcome in assay [1] and in assay [2] was Active.

As for `O=C(c1ccccc1O)c1ccccc1O`, the outcome in assay [1] and in assay [2] was inactive.

Take `COc1cccc(C=O)c1O`: the outcome in assay [1] and in assay [2] was inactive.

Take `O=S(=O)(O)c1cc(S(=O)(=O)O)c2c(/N=N/c3ccccc3)c(O)ccc2c1`: the outcome in assay [1] and in assay [2] was inactive.

With `O=C(O)c1cc(/N=N/c2ccc(-c3ccc(/N=N/c4ccc(O)c(C(=O)O)c4)cc3)cc2)ccc1O`, the outcome in assay [1] and in assay [2] was inactive.

As for `COc1ccc(C(=O)c2cc(OC)cc(OC)c2)cc1`, the outcome in assay [1] and in assay [2] was inactive.

Consider `COc1cc(/C=C/C(=O)CC(=O)/C=C/c2ccc(O)c(OC)c2)ccc1O`, for which the result in assay [1] and in assay [2] was inactive.

As for `COc1ccc(C=O)cc1`, the result in assay [1] and in assay [2] was inactive.

`Oc1cc(O)c2c(c1)O[C@H](c1ccc(O)c(O)c1)[C@H](O)C2`: the result in assay [1] and in assay [2] was inactive.

For the molecule `COc1cc(/C=C/C(=O)NCCCCNC(=O)/C=C/c2ccc(O)c(OC)c2)ccc1O`, the outcome in assay [1] and in assay [2] was inactive.

Turning to `O=Cc1c[nH]c2ccccc12`, the outcome in assay [1] and in assay [2] was inactive.

As to `Nc1ccc2nc3ccc(N)cc3[s+]c2c1`, the result in assay [1] and in assay [2] was inactive.

As to `O=c1c(O)c(-c2cc(O)c(O)c(O)c2)oc2cc(O)cc(O)c12`, the result in assay [1] and in assay [2] was inactive.

Regarding `O=C(/C=C/c1ccc(O)c(O)c1)O[C@H](Cc1ccc(O)c(O)c1)C(=O)O`, the result in assay [1] and in assay [2] was inactive.

With `COc1ccc(/C=C/C(=O)c2ccccc2)cc1OC`, the outcome in assay [1] and in assay [2] was inactive.

Take `CC(Cc1ccc(O)c(O)c1)C(C)Cc1ccc(O)c(O)c1` (centres undefined): the outcome in assay [1] and in assay [2] was inactive.

`Nc1c(/N=N/c2ccc(-c3ccc(/N=N/c4cc(S(=O)(=O)O)c5ccccc5c4N)cc3)cc2)cc(S(=O)(=O)O)c2ccccc12`: the result in assay [1] and in assay [2] was Active.

In the case of `O=C(/C=C/c1cccc(O)c1)c1ccccc1`, the outcome in assay [1] and in assay [2] was inactive.

In the case of `COc1cc(/C=C/C(=O)NCCNC(=O)/C=C/c2ccc(O)c(OC)c2)ccc1O`, the outcome in assay [1] and in assay [2] was inactive.

In the case of `CN(C)c1ccc(N=Nc2ccccc2)cc1`, the result in assay [1] and in assay [2] was inactive.

In the case of `CN(C)c1ccc2nc3ccc(N)cc3[s+]c2c1`, the outcome in assay [1] and in assay [2] was inactive.

On to `O=C(/C=C/c1ccccc1)c1ccccc1`, for which the result in assay [1] and in assay [2] was inactive.

Consider `O=C1C=Cc2ccccc2C1=O`, for which the result in assay [1] and in assay [2] was Active.

As to `O=c1oc2c(O)c(O)cc3c(=O)oc4c(O)c(O)cc1c4c23`, the outcome in assay [1] and in assay [2] was inactive.

Consider `Oc1ccc(Cc2ccc(O)cc2)cc1`, for which the outcome in assay [1] and in assay [2] was inactive.

`O=C(O[C@@H]1Cc2c(O)cc(O)cc2O[C@@H]1c1cc(O)c(O)c(O)c1)c1cc(O)c(O)c(O)c1`: the result in assay [1] and in assay [2] was inactive.

In the case of `O=C(c1ccc(O)cc1)c1ccc(O)cc1`, the result in assay [1] and in assay [2] was inactive.

With `COc1cc(/C=C/C(=O)NCCCCCCCCNC(=O)/C=C/c2ccc(O)c(OC)c2)ccc1O`, the result in assay [1] and in assay [2] was inactive.

Regarding `CN(C)[C@@H]1C(O)=C(C(=O)NCN2CCCC2)C(=O)[C@@]2(O)C(O)=C3C(=O)c4c(O)cccc4[C@@](C)(O)[C@H]3C[C@@H]12`, the outcome in assay [1] and in assay [2] was inactive.

Consider `COc1ccc(/C=C/C(=O)CC(=O)/C=C/c2ccc(OC)c(OC)c2)cc1OC`, for which the result in assay [1] and in assay [2] was inactive.

As for `COc1cc(/C=C/C(=O)NCc2cccc(CNC(=O)/C=C/c3ccc(O)c(OC)c3)c2)ccc1O`, the result in assay [1] and in assay [2] was inactive.

As for `COc1ccc(/C=C/c2cc(OC)cc(OC)c2)cc1`, the result in assay [1] and in assay [2] was inactive.

As for `O=C1C=CC(=O)c2c(O)cccc21`, the outcome in assay [1] and in assay [2] was inactive.

As for `O=c1cc2oc3cc(O)c(-c4ccc(O)cc4O)cc3nc-2cc1-c1ccc(O)cc1O`, the result in assay [1] and in assay [2] was inactive.

On to `O=C1C[C@@H](c2ccc(O)cc2)Oc2cc(O)cc(O)c21`, for which the result in assay [1] and in assay [2] was inactive.

Turning to `COc1ccc(C=O)cc1OC`, the outcome in assay [1] and in assay [2] was inactive.

Turning to `O=Cc1cccc(O)c1`, the outcome in assay [1] and in assay [2] was inactive.

With `NCCc1ccc(O)c(O)c1`, the result in assay [1] and in assay [2] was inactive.

In the case of `CN(C)c1ccc(N=Nc2ccccc2C(=O)O)cc1`, the result in assay [1] and in assay [2] was inactive.

Consider `Oc1ccc(/C=C/c2cc(O)cc(O)c2)cc1`, for which the result in assay [1] and in assay [2] was Active.

Regarding `CC(=O)c1ccccc1`, the outcome in assay [1] and in assay [2] was inactive.

Turning to `O=C(O)c1ccccc1O`, the outcome in assay [1] and in assay [2] was Active.

For `Nc1ccc(/N=N/c2ccc(-c3ccc(/N=N/c4c(S(=O)(=O)O)cc5cc(S(=O)(=O)O)c(/N=N/c6ccccc6)c(O)c5c4N)cc3)cc2)c(N)c1`, the outcome in assay [1] and in assay [2] was inactive.

As to `COc1ccc(/C=C/C(=O)c2cccc(N)c2)cc1OC`, the result in assay [1] and in assay [2] was inactive.

`CN(C)c1ccc(O)c2c1C[C@H]1C[C@H]3[C@H](N(C)C)C(O)=C(C(N)=O)C(=O)[C@@]3(O)C(O)=C1C2=O`: the result in assay [1] and in assay [2] was inactive.

With `CN(C)c1ccc2nc3ccc(=[N+](C)C)cc-3sc2c1`, the result in assay [1] and in assay [2] was inactive.

`O=c1c(O)c(-c2ccc(O)c(O)c2)oc2cc(O)cc(O)c12`: the outcome in assay [1] and in assay [2] was inactive.

`O=c1cc(-c2ccc(O)cc2)oc2cc(O)cc(O)c12`: the outcome in assay [1] and in assay [2] was inactive.

Take `Oc1cc(O)c2c(c1)O[C@H](c1ccc(O)c(O)c1)[C@@H](O)C2`: the outcome in assay [1] and in assay [2] was inactive.

With `COc1cc(/C=C/C(=O)O)ccc1O`, the outcome in assay [1] and in assay [2] was Active.

For `O=C(O)/C=C/c1cccc(O)c1`, the outcome in assay [1] and in assay [2] was inactive.
